US20210290742A1, “METHODS OF USING LYSINE DEACETYLASE (KDAC) INHIBITION TO GENERATE ANTIGEN SPECIFIC MEMORY T CELL RESPONSES FOR DURABLE IMMUNOTHERAPY” (ARIZONA BOARD OF REGENTS ON BEHALF OF THE UNIVERSITY OF …, priority 2018, published 2021)

Key:
[1] = test system: naïve CD8+ (OT-I) T cells; assay: Antigen-induced early activation of naïve CD8+ (OT-I) T cells, CD69/CD62L surface staining by flow cytometry; assay type: cell-based, murine; conditions: pre-treatment with TSA 2.5 ng/ml, antigen stimulation 4 hours, vs antigen alone
Method: KDAC inhibition with TSA at 2.5 ng/ml differentially regulates early activation phenotype of antigen stimulated CD8+ T cells. […] Naïve cells (control) are presented in shaded histograms, and antigen stimulated cells (Ag) are shown by the solid line histogram. […] The results shown are representative of five independent experiments with identical outcomes. (N: Naîve; A; Ag; A+T: Ag+TSA).
(§1) Examples 1-0 were obtained from a murine transgenic model, from which in vitro stimulated naïve cells were isolated from TCR transgenic mice (OT-1/Rag -/-). […]
Cognate antigen presented by MHC Class 1 to irate CD8+ T cells in the context of co-stimulation and cytokine leads to rapid (2-4 hours) increases in CD69 expression and decreases in CD62L, which indicate antigen induced early T cell activation response. To characterize early activation of T cells, naïve CD8+(OT-I) T cells were reacted with antigen (Ag; latex microspheres bearing H-2Kb-Fc+/8 amoni acid cognate peptide/rmB7-1) in vitro for 4 hours, cell surface was stained for […] and CD69 expression and evaluated by flow cytometry. […]

[2] = test system: TCR proximal signaling (Lck, Zap70, PKCθ phosphorylation); assay: Western blot of early TCR signaling proteins (p-Lck, p-Zap70, p-PKCθ) in antigen stimulated CD8+ T cells; assay type: cell-based, murine; conditions: TSA pre-treatment 30 minutes 2.5 ng/ml, vs Ag alone
Method: (§2) Lysates from naïve OT-1 cells served as a control (N). Cell lysates were prepared at 0, 15, 60, or 120 minutes post-stimulation and analyzed for p-LcK^Tyr394, p-Zap70, p-PKCe and β-tubulin levels by Western blot analysis. […] The normalized values at indicated time-points are plotted. […] Naïve (shaded histograms, antigen alone (solid line histogram) and antigen plus TSA (histogram indicated by arrow). Error bars are the standard error of mean (SEM) values obtained from three independent experiments. Naïve OT-1 T cells were pre-treated with TSA for 30 minutes and then stimulated with Ag (microspheres bearing H-2K^b/cognate 8 amino acid peptide/B7-1), (h: hour: N: Naïve; A: Ag; A+T: Ag+TSA).
(§3) Examples 1-0 were obtained from a murine transgenic model, from which in vitro stimulated naïve cells were isolated from TCR transgenic mice (OT-1/Rag -/-). In brief, the CD8+ T cells obtained from nave TCR transgenic mice (OT-1/Rag -/-) mice were stimulated in vitro with latex microspheres on which major histocompatibility complex (MHC) Class I (H-2Kb) dimers bearing 10 nM of cognate peptide (Ag) were immobilized, along with 1 μg/ml of recombinant murine […] (co-stimulation) and 2 ng/ml of rmIL-12 (cytokine) (FIG. 1).
(§4) Western blot analysis was conducted to compare the level of phosphorylation of early TCR signaling proteins, Lck, Zap70, and PKCθ, by TSA pre-treatment of antigen stimulated CD8+ T cells. […] Since, the energy sensitive kinase mTORC1 serves as an integrative node for extracellular signals that initiate naïve CD8+ T cells activation, the mTORC1 activity was assessed by measuring the phosphorylation state of the mTORC1 target ribosomal […] (p-S6) by intracellular flow cytometry (FIG. 3D).

mTORC1 = mTORC1 activity by intracellular flow cytometry of pS6K in antigen stimulated CD8+ T cells; assay type: cell-based, murine; conditions: TSA pretreatment, 4 and 8 hours post-antigen stimulation of naïve OT-1 T cells
Method: as §2, §1, §4

[3] = test system: antigen stimulated CD8+ T cells; assay: CD8 expression asymmetry in antigen stimulated CD8+ T cells at 24 h; assay type: cell-based, murine; conditions: TSA pre-treated, within 24 h, vs Ag alone
Method: Results shown are representative of three independent experiments with identical outcomes. (h: hour; hi high; lo; low).
as §3
Accumulating evidence implicates a deterministic role for cellular asymmetry in antigen induced CD8+ T cells division and functional maturation. The KDACi-mediated reduced TCR signaling and mTOR activity were examined to determine their effect on the induction of inherent asymmetry produced in antigen stimulated CD8+ T cells (FIGS. 4A-4D). […] This could be attributed to the lower threshold of early activation/TCR signaling cues available to the TSA primed CD8+ T cells.

[4] = test system: antigen stimulated CD8 High and CD8 Low T cells; assay: mTORC1 activity, cell cycle and proliferation of FACS sorted CD8 High and CD8 Low cells at 48 h; assay type: cell-based, murine; conditions: total 48 hours
Method: Gating strategies and growth profiles of antigen alone (Ag) or TSA induced antigen (Ag+TSA) at 48 hours are shown for CD8 High and CD8 Low populations. Ag and Ag+TSA CD8+ T-cell cultures were FACS sorted on the basis of CD8α expression. […] Solid line histograms represent Ag or Ag+TSA CD8 or High cells and shaded histograms are unstimulated naïve CD8+ T cells. […] Solid line histograms represent Ag or Ag+TSA CD8 Low or High cells and shaded histograms are unstimulated naïve CD8+ T cells. […] Error bars are the standard error of mean (SEM) values obtained from three independent experiments. (h: hour; hi: high; lo: low).
as §3
To determine the implications of the TSA-mediated tuned percentage of CD8 expression on the growth profile, of these cells, the 24 hours Ag and Ag # TSA CD8+ T cells were separated by FACS sorting on the basis of their CD8 expression (FIGS. 5A-5H).

[5] = test system: antigen stimulated CD8+ T cells; assay: Clonal expansion of antigen stimulated CD8+ T cells; assay type: cell-based, murine; conditions: TSA 2.5 ng/ml
Human Jurkat T cells = assay: Early CD69 expression on stimulated Jurkat T cells; assay type: cell-based; conditions: TSA 10 ng/ml, anti-CD3/anti-CD28 stimulation, 2 and 4 hours
Method: Human Jurkat T Cells were incubated with anti-CD3/anti-0028 (Ag) in the presence or absence of TSA 10 ng/ml) or anti-CD45/CD28 (unstimulated) antibody mated chamber slides for indicated time points. The cells were harvested, counted and stained for CD69. […] FIGS. 10C and 10D show the percentage (% CD69) and their relative Mean Fluorescence intensity (MFI) at 2 and 4 hours, respectively (h: hour).
(§5) Examples 9-10 were obtained from human Jurkat cell line. Jurkat T cells were […]

[6] = test system: IL-2 gene expression in Human Jurkat cells; assay: qPCR analysis of antigen-induced IL-2 gene expression in Jurkat T cells; assay type: cell-based; conditions: anti-CD3/anti-CD28 stimulated Jurkat T cells, 30 min to 16 h, presence vs absence of TSA
Method: IL-2 gene expression is shown in FIG. 11 in stimulated Jurkat T cells in presence or absence of ISA. Cells were incubated on the anti-CD3/anti-CD28 (stimulatory) or anti-CD45 (non-stimulatory) antibody coated chamber slides for 30 min to 16 h, then the total RNA was extracted and performed qPCR analysis of 1L-2 expression. Data shown are the mean fold change of ±SD of three independent experiments. Error bars represent standard deviations. *, statistically significant (p<0.05) and **, p=0.0071 with respect to the values obtained in the presence of TSA. ns, non-significant. (h: hour).
as §5

CC(/C=C/C(=O)NO)=C\[C@@H](C)C(=O)c1ccc(N(C)C)cc1 [TSA, Trichostatin A] was tested, and the CD62L shedding [1] was “increases CD62L shedding”, the CD69 expression [1] was “reduces antigen dose dependent CD69 expression” and the “phosphorylation of Zap70” value ([2]; 60 minutes) was “reduction”. For the same compound, the “phosphorylation of PKCθ” value ([2]; 120 minutes) was “reduction”, the “phosphorylation of Lck” value ([2]; by 15 minutes) was “dampened” and the “mTORC1 activity (S6Kp)” value (mTORC1) was “dampened mTORC1 activity”. For the same compound, the “proportion of cells with increased expression of CD8” value [3] was “lesser proportion of cells to have increased expression of CD8 as compared to Ag alone”, the “mTORC1 activity (S6Kp) in CD8 Hi cells” value ([4]; Ag+TSA CD8 Hi vs Ag alone CD8 Hi) was “higher” and the “cell cycle phase of CD8 High cells” value ([4]; Ag+TSA CD8 High vs Ag CD8 Hi) was “enter S phase, comparable to the Ag CD8 Hi cells”. The “cell cycle phase of CD8 Low cells” value ([4]; Ag+TSA CD8 Low vs Ag CD8 Low) was “retained in the G0-G1 phase of cell cycle and do not enter the S phase”, the “mTORC1 activity (S6Kp) in CD8 Low cells” value ([4]; Ag+TSA CD8 Low vs Ag CD8 Low) was “reduced” and the clonal expansion [5] was “reduces clonal expansion”. For the same compound, the “early antigen stimulation (CD69 expression)” value (Human Jurkat T cells) was “dampens early antigen stimulation of Jurkat T cells” and the IL-2 gene expression [6] was “reduces IL-2 gene expression”.
